The results in this text go back to the supplement of paper PMC10307832.

Assay in all cases: relative viability (nuclei count vs DMSO), 5 days (fraction); higher = more cells survive
Compound in assay [1]: C1CC(C1)(C(=O)O)C(=O)O.[NH2-].[NH2-].[Pt+2] [Carboplatin] + CS(=O)(=O)CCNCc1ccc(-c2ccc3ncnc(Nc4ccc(OCc5cccc(F)c5)c(Cl)c4)c3c2)o1 [Lapatinib] (partner 2 µM)
The gist of the method: (§1)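 Lung cancer cell lines in 1536-well plates got either a single drug or a fixed anchor-drug dose together with five library-drug doses (not always all listed) in √10 steps, by pin tool, on the day after seeding. Nuclei were counted after 5 days, and relative viability is the treated-to-vehicle ratio of nuclei counts. Values are medians of duplicate plates.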

Compound in assay [2]: CC[C@H](C)N1C=C(C2=C(C=C(C=C21)C3=CN=C(C=C3)N4CCNCC4)C(=O)NCC5=C(C=C(NC5=O)C)C)C [GSK126] + C[C@@H](Oc1cc(-c2cnn(C3CCNCC3)c2)cnc1N)c1c(Cl)ccc(F)c1Cl [Crizotinib] (partner 1 µM)
The method, boiled down: as §1

Compound in assay [3]: CC[C@H](C)N1C=C(C2=C(C=C(C=C21)C3=CN=C(C=C3)N4CCNCC4)C(=O)NCC5=C(C=C(NC5=O)C)C)C [GSK126] + O=C(CCCCCCC(=O)Nc1ccccc1)NO [Vorinostat] (partner 1 µM)
The gist of the method:
as §1

Compound in assay [4]: NS(=O)(=O)OC[C@@H]1C[C@@H](n2ccc3c(N[C@H]4CCc5ccccc54)ncnc32)C[C@@H]1O [MLN4924] + CS(=O)(=O)CCNCc1ccc(-c2ccc3ncnc(Nc4ccc(OCc5cccc(F)c5)c(Cl)c4)c3c2)o1 [Lapatinib] (partner 2 µM)
The method, boiled down: as §1

Take UMC-11: the relative viability in assay [1] (first compound 0.08 µM) is 1.01; in assay [1] (first compound 0.253 µM), 0.941; in assay [1] (first compound 0.8 µM) it was 1.07; in assay [1] (first compound 2.53 µM), 1.04; in assay [1] (first compound 8 µM), 0.847; in assay [2] (first compound 0.08 µM) it was 0.723. For the same cell line, the relative viability in assay [2] (first compound 0.253 µM) came to 0.689; in assay [2] (first compound 0.8 µM), 0.604; in assay [2] (first compound 2.53 µM) it was 0.523; in assay [2] (first compound 8 µM) it was 0.525; in assay [3] (first compound 0.08 µM), 0.409; in assay [3] (first compound 0.253 µM), 0.381. Besides, the relative viability in assay [3] (first compound 0.8 µM) came to 0.356; in assay [3] (first compound 2.53 µM), 0.459; in assay [3] (first compound 8 µM) it was 0.341; in assay [4] (first compound 0.04 µM), 0.39; in assay [4] (first compound 0.1265 µM), 0.383; in assay [4] (first compound 0.4 µM), 0.271. For the same cell line, the relative viability in assay [4] (first compound 1.265 µM) came to 0.122; in assay [4] (first compound 4 µM), 0.143.
